Results published in PMC7465040, “Cytotoxic and Anti-Plasmodial Activities of Stephania dielsiana Y.C. Wu Extracts and the Isolated Compounds” (Molecules, 2020).
Where two headings read alike, the source gives them in different places.

Assays:
[1] = test system: chloroquine-susceptible 3D7 P. falciparum strain; test: In vitro anti-plasmodial assay (HRP2 ELISA), 3D7; type: cell-based, Plasmodium falciparum; settings: for IC50: Plasmodium falciparum, 3D7, 72 h, read-out: IC50 (μM ± SD) 3D7; for SI 3D7 184B5 / SI 3D7 MCF10A: Table 3; for SI 3D7 184B5: selectivity index between 184B5 and parasites 3D7; for SI 3D7 MCF10A: selectivity index between MCF10A and parasites 3D7; for Selective index SI on 3D7 strain: vs 184B5 and MCF10A
Method: (§1) Parasites were grown in A-positive human blood (Etablissement Français du Sang, Marseille, France) under controlled atmospheric conditions that consisted of 10% O2, 5% CO2, and 85% N2 at 37 °C with a humidity of 95%.
(§2) In vitro anti-plasmodial assay: The two P. falciparum strains 3D7 and W2 were synchronized twice with sorbitol before use. The clonality of these strains was verified both in our laboratory and in an independent laboratory from the Worldwide Anti-malarial Resistance Network (WWARN) by PCR genotyping of the polymorphic genetic markers msp1 and msp2 and microsatellite loci. The compounds were re-suspended in methanol or DMSO 5% (v/v) and then diluted in methanol to obtain final concentrations ranging from 0.008 to 500 μg/mL (final concentration of 0.5% of methanol or DMSO). […] The plates were incubated for 72 h at 37 °C in controlled atmospheric conditions 5% CO2, 10% O2, and […]. After thawing the plates, haemolysed cultures were homogenized by vortexing the plates. Both the success of the drug susceptibility assay and the appropriate volume of haemolysed culture to use for each assay were determined for each clinical isolate during a preliminary HRP2 ELISA. Both the pre-test and subsequent ELISA assays were performed using a commercial kit (Malaria Ag Celisa, ref KM2159, Cellabs PTY LTD, Brookvale, Australia) according to the manufacturer’s recommendation. The optical density (OD) of each sample was measured with a spectrophotometer (Safire 2, Tecan, Lyon, France). […] The anti-plasmodial in vitro assay was performed five times for each product. The IC50 values represented the mean value calculated from five experiments. According to Hout, a selectivity index (SI) was based on the ratio between anti-parasitic and cytotoxic activities. In the case of our study, a SI was calculated between non-tumorigenic cell line 184B5 and parasites 3D7 or W2 and/or MCF10A and these two parasites.

[2] = test system: HeLa; test: SRB cell proliferation assay, HeLa; type: cell-based, human; settings: for IC50: Homo sapiens, HeLa, 72 h, read-out: IC50 (μM ± SD) HeLa; for Selectivity index (SI) 184B5 versus HeLa / Selectivity index (SI) MCF10A versus HeLa: Table 2B; for Selectivity index (SI) 184B5 versus HeLa: non-cancer 184B5 vs cancer HeLa; for Selectivity index (SI) MCF10A versus HeLa: non-cancer MCF10A vs cancer HeLa
Method: (§3) In vitro anticancer study: The in vitro anti-proliferative tests were carried out as described previously, using aliquots of the cell lines used therein. Briefly, HeLa, MDA-MB-231 and MDA-MB-468, MCF7, and 184B5 and MCF 10A cell lines were purchased from ATCC. The identity of the cell lines presented in this study were verified by short tandem repeat profiling by Genetica DNA Laboratories (www.celllineauthentication.com) (April 8, 2015). MCF10A was grown in DMEM F12 medium supplemented with 0.02 μg/mL epidermal growth factor, 10% FBS, 10 μg/mL insulin and […] hydrocortisone. MDA-MB-468 were grown in DMEM supplemented with 10% FBS and antibiotics cocktail (100 μg/mL streptomycin, 100 units/mL penicillin and 250 ng/mL amphotericin B). SRB cell proliferation assays were carried out as previously described, with some minor modifications. The concentration range for all tested cell lines were from 100–0.39 μg/mL for extracts and 100–0.39 μM for pure compounds. […] All experiments were carried out at least twice.

[3] = test system: MDA-MB-231; test: SRB cell proliferation assay, MDA-MB-231; type: cell-based, human; settings: for IC50: Homo sapiens, read-out: IC50 (μM ± SD) MDA-MB-231; for Selectivity index (SI) 184B5 versus MDA-MB-231 / Selectivity index (SI) MCF10A versus MDA-MB-231: Table 2B; for Selectivity index (SI) 184B5 versus MDA-MB-231: non-cancer 184B5 vs cancer MDA-MB-231; for Selectivity index (SI) MCF10A versus MDA-MB-231: non-cancer MCF10A vs cancer MDA-MB-231
Method: as §3

[4] = test system: 184B5; test: SRB cell proliferation assay, 184B5 non-cancer cells; type: cell-based, human; settings: Homo sapiens
Method: as §3

[5] = test system: Plasmodium falciparum 3D7 and W2 strains; test: In vitro anti-plasmodial assay, both strains; type: cell-based
Method: as §1, §2

[6] = test system: MCF 10A; test: SRB cell proliferation assay, MCF10A non-cancer cells; type: cell-based; settings: Homo sapiens, read-out: IC50 (μM ± SD) MCF 10A
Method: as §3

[7] = test system: MDA-MB-468; test: SRB cell proliferation assay, MDA-MB-468; type: cell-based, human; settings: for IC50: Homo sapiens, read-out: IC50 (μM ± SD) MDA-MB-468; for Selectivity index (SI) 184B5 versus MDA-MB-468 / Selectivity index (SI) MCF10A versus MDA-MB-468: Table 2B; for Selectivity index (SI) 184B5 versus MDA-MB-468: non-cancer 184B5 vs cancer MDA-MB-468; for Selectivity index (SI) MCF10A versus MDA-MB-468: non-cancer MCF10A vs cancer MDA-MB-468
Method: as §3

[8] = test system: chloroquine-resistant W2 P. falciparum strain; test: In vitro anti-plasmodial assay (HRP2 ELISA), W2; type: cell-based, Plasmodium falciparum; settings: for IC50: Plasmodium falciparum, W2, 72 h, read-out: IC50 (μM ± SD) W2; for SI W2 184B5 / SI W2 MCF10A: Table 3; for SI W2 184B5: selectivity index between 184B5 and parasites W2; for SI W2 MCF10A: selectivity index between MCF10A and parasites W2
Method: as §1, §2

[9] = test system: HeLa, MDA-MB231, MDA-MB-468, MCF7, 184B5 and MCF10A cell lines; test: SRB cell proliferation assay, whole panel of cell lines; type: cell-based, human; settings: Homo sapiens, read-out: IC50 values, range over the cell lines examined
Method: as §3

[10] = test system: MCF7; test: SRB cell proliferation assay, MCF7; type: cell-based, human; settings: for IC50: Homo sapiens, read-out: IC50 (μM ± SD) MCF7; for Selectivity index (SI) 184B5 versus MCF7 / Selectivity index (SI) MCF10A versus MCF7: Table 2B; for Selectivity index (SI) 184B5 versus MCF7: non-cancer 184B5 vs cancer MCF7; for Selectivity index (SI) MCF10A versus MCF7: non-cancer MCF10A vs cancer MCF7
Method: as §3

[11] = 72 h, HRP2 ELISA, mean of five experiments

SMILES	SI 3D7 184B5 [1]	SI 3D7 MCF10A [1]	Selective index SI on 3D7 strain [1]	Selectivity index (SI) 184B5 versus HeLa [2]	Selectivity index (SI) MCF10A versus HeLa [2]	Selectivity index (SI) 184B5 versus MDA-MB-231 [3]	Selectivity index (SI) MCF10A versus MDA-MB-231 [3]	Anti-plasmodial activity against both 3D7 and W2 (in words) [5]	Selectivity index (SI) 184B5 versus MDA-MB-468 [7]	Selectivity index (SI) MCF10A versus MDA-MB-468 [7]	SI W2 184B5 [8]	SI W2 MCF10A [8]	Selectivity index (SI) 184B5 versus MCF7 [10]	Selectivity index (SI) MCF10A versus MCF7 [10]	also measured
COc1ccc2c(c1OC)-c1c3c(cc4c1C(C2)N(C)CC4)OCO3 (centres unmarked) [O-methylbulbocapine 5, O-methylbulbocapnine]	26.07	21.16	> 20	1.04	0.85	1.29	1.05	strong activity	1.52	1.24	12.83	10.42	1.86	1.51	IC50 [1, 11]: 2.81 ± 0.4 µM; IC50 ([2]; Table 2A, SRB): 70.4 ± 11.4 µM; IC50 ([3]; MDA-MB-231, Table 2A, SRB, 72 h): 56.6 ± 9.08 µM; IC50 ([4]; 184B5, Table 2A, SRB, 72 h, read-out: IC50 (μM ± SD) 184B5): 73.26 ± 0.47 µM; IC50 ([4]; 184B5, Table 3, non-cancer cell line, read-out: IC50 (μM ± SD) 184B5): 73.26 ± 0.47 µM; IC50 ([6]; Table 2A, SRB, 72 h): 59.5 ± 1.9 µM; IC50 ([6]; Table 3, non-cancer cell line): 59.5 ± 1.9 µM; IC50 ([7]; MDA-MB-468, Table 2A, SRB, 72 h): 48.1 ± 1.69 µM; IC50 [8, 11]: 5.71 ± 0.62 µM; IC50 ([9]; cancer and non-cancer cell lines): 39 to 73 µM; IC50 ([10]; MCF7, Table 2A, SRB, 72 h): 39.4 ± 6.2 µM
COc1ccc2c(c1OC)CC1c3c(cc4c(c3-2)OCO4)CCN1C (centres unmarked) [Crebanine 4, crebanine]	30.41	30.23	> 20	0.99	0.98	1.22	1.21	strong activity	2.66	2.65	21.96	21.83	1.56	1.55	IC50 [1]: 1.56 ± 0.22 µM; IC50 [2]: 48.1 ± 2.38 µM; IC50 ([3]; MDA-MB-231, 72 h): 38.9 ± 7.1 µM; IC50 ([4]; 184B5, 72 h, read-out: IC50 (μM ± SD) 184B5): 47.4 ± 2.83 µM; IC50 ([4]; 184B5, read-out: IC50 (μM ± SD) 184B5): 47.4 ± 2.83 µM; IC50 ([6]; 72 h): 47.2 ± 4.37 µM; IC50 [6]: 47.2 ± 4.37 µM; IC50 ([7]; MDA-MB-468, 72 h): 17.8 ± 4.63 µM; IC50 [8]: 2.16 ± 0.38 µM; IC50 [9]: 17 to 48 µM; IC50 ([10]; MCF7, 72 h): 30.5 ± 4.89 µM
